Reference: patent publication US20230218589A1, “COMPOUND FOR PREVENTION OR TREATMENT OF A SKIN CANCER OR SKIN PRECANCER” (UNIQUEST PTY LTD, priority 2020, published 2023)

Assays:
T lymphocytes = details: cited from earlier work
human T cells = assay: Human T cell proliferation assay (PBMCs, anti-CD3, CellTiter-Glo); assay type: cell-based
Method: Cyclosporine A 1 mg/mL stock (CsA—Sigma) was dissolved in DMSO, Rapamycin 5 mg/mL stock (LC Labs) was dissolved in ethanol.
Under sterile conditions, a 96 well flat bottom plate with white opaque walls (Perkin Elmer) was coated with 10 μg per well of purified human anti-CD3 antibody (clone OKT-3; Biolegend) in a volume of 50 μL per well in sterile PBS. The plate was covered in parafilm and incubated overnight at 4° C. Just prior to addition of Peripheral Blood Mononuclear Cells (PBMCs), the antibody solution was removed and discarded using a multichannel pipette. Wells were washed by adding 200 μL sterile PBS to each well and incubating for 2 min. PBS wash solution was removed and discarded following incubation. The wash step was repeated once, for a total of two PBS washes.
20 mL of blood from a consenting healthy volunteer was collected into lithium heparin vacuette containers (Greiner Bio-One). Under sterile conditions, blood from each container was pooled into a single tube and mixed thoroughly with 20 mL FACS buffer (2% FBS in 1×PBS). 15 mL Ficoll-Paque (GE Healthcare) was added to two 50 mL Falcon tubes, before 20 mL of whole blood/FACS buffer mixture was carefully and slowly dispensed on top of the Ficoll layer. Tubes were centrifuged at 800 g for 20 min at room temperature with the brake off. After centrifugation, the resulting PBMC layer between the plasma and Ficoll layers was carefully removed and transferred to a new 50 mL Falcon tube. Tubes were topped up to 45 mL with FACS buffer, then centrifuged at 500 g for 15 min. Supernatant was carefully removed without disturbing cell pellet, then PBMCs from both tubes were pooled. 30 mL of pre-warmed complete RPMI media [RPMI 1640 (Gibco), 10% heat inactivated FBS (Gibco), 1× Penicillin/Streptomycin/L-Glutamine (Gibco), 100 μM 2-Mercaptoethanol (Sigma)] was added to PBMCs, before centrifugation at 500 g for 15 min at room temperature. Supernatant was removed carefully without disturbing cell pellet. PBMCs were resuspended in 1 mL complete RPMI media.
PBMCs were counted manually using a haemocytometer and cell concentration was adjusted to 1.5×10^6 cells/mL with complete RPMI media. 50 μL of cell suspension was added to appropriate wells of the 96 well flat bottom plate with white opaque walls pre-coated in human anti-CD3. The final number of cells per well was 7.5×10^4.
Cells were incubated in a humidified incubator at 37° C. with 5% CO2 for 1 hour before Compound 1 (or vehicle only) was diluted in complete RPMI medium and added to the appropriate wells at the concentration required. The final volume in all wells was 100 μL. Cells were incubated for 5 days in a humidified incubator at 37° C. with 5% CO2.
CellTiter-Glo Luminescent Cell Viability Assay (Promega) was performed to determine the level of metabolically active cells per well based on ATP quantification. CellTiter-Glo Buffer and lyophilised CellTiter-Glo Substrate were equilibrated to room temperature. CellTiter-Glo Substrate was reconstituted with 10 mL CellTiter-Glo Buffer and gently vortexed for 1 minute to create the CellTiter-Glo Reagent. The 96 well plate containing PBMCs was equilibrated to room temperature for 30 min. Once at room temperature, 100 μL of CellTiter-Glo Reagent was dispensed using a multichannel pipette into each well containing 100 μL cells and media. The plate was mixed for 2 min at room temperature on an orbital shaker to induce cell lysis. The plate was then incubated for 10 min at room temperature in the dark to stabilize the luminescence signal. Luminescence signal was recorded using a CLARIOstar Plus plate reader (BMG Labtech).
PBMCs were stimulated with human anti-CD3 antibody and T cells were allowed to proliferate at 37° C. with 5% CO2 in a humidified incubator for 5 days. Proliferation/viability was assessed via a CellTiter-Glo Luminescent Cell Viability Assay and luminescence was read using a CLARIOstar Plus plate reader. […]

skin tumours = details: 104 weeks, doses up to 260× of the recommended human dose (Protopic prescribing information); cited from earlier work

| SMILES | EC50 (T lymphocytes; cultured with tacrolimus 1.2 nM, C57B1/6 mouse spleen T lymphocytes, read-out: ED50, concentration required to inhibit tritiated thymidine uptake of T cells by 50%) | rescue of T cell proliferation in the presence of rapamycin (human T cells; 0.3 μM, 1 μM and 3 μM Compound 1 with 1 ng/mL rapamycin, 5 days) | rescue of T cell proliferation in the presence of cyclosporine A (human T cells; 0.3 μM, 1 μM and 3 μM Compound 1 with 50 ng/mL cyclosporine A, 5 days) | rescue of T cell proliferation in the presence of tacrolimus (human T cells; 1 μM and 3 μM Compound 1 with 0.6 ng/mL tacrolimus, 5 days) | T cell proliferation/viability with Compound 1 alone (human T cells; no tacrolimus, 5 days) | inhibition of T cell proliferation (T lymphocytes; tacrolimus 1.2 nM) | T cell proliferation compared to the vehicle control (human T cells; 0.6 ng/mL tacrolimus, anti-CD3, 5 days) | association of skin tumours with daily topical doses (skin tumours) |
| --- | --- | --- | --- | --- | --- | --- | --- | --- |
| CC[C@@H]1/C=C(\C)[C@@H](O)[C@H](C)C[C@H](OC)[C@H]2O[C@@](O)(C(=O)C(=O)N3CCCC[C@H]3C(=O)O[C@H](/C(C)=C/[C@@H]3CC[C@@H](O)[C@H](OC)C3)[C@H](C)[C@@H](O)CC1=O)[C@H](C)C[C@@H]2OC [Compound 1, 17-Ethyl-1,14,20-trihydroxy-12-[2′-(4″-hydroxy-3″-methoxycyclohexyl)-1′-methylvinyl]-23,25-dimethoxy-13,19,21,27-tetramethyl-11,28-dioxa-4-azatricyclo-[22.3.1.0^4,9]octacos-18-ene-2,3,10,16-tetraone] | < 50 µM | significantly rescued | unable to rescue | dose dependently and significantly rescued | did not significantly alter |  |  |  |
| C=CC[C@@H]1/C=C(\C)C[C@H](C)C[C@H](OC)[C@H]2O[C@@](O)(C(=O)C(=O)N3CCCC[C@H]3C(=O)O[C@H](/C(C)=C/[C@@H]3CC[C@@H](O)[C@H](OC)C3)[C@H](C)[C@@H](O)CC1=O)[C@H](C)C[C@@H]2OC [tacrolimus, reference compound] |  |  |  |  |  | 100% | inhibited | no association |
